In ChEMBL document CHEMBL4028801, “A multifactorial approach to hepatobiliary transporter assessment enables improved therapeutic compound development” (Toxicol Sci, 2013) one finds IC50 data, which are given here for 29 molecules.

One experiment addresses Bile salt export pump (Homo sapiens, UniProt O95342). As to the kind of experiment: Inhibition of human BSEP overexpressed in Sf9 cell membrane vesicles assessed as uptake of [3H]-taurocholate in presence of ATP measured after 15 to 20 mins by membrane vesicle transport assay. The format is ADME, cell-based.
Experiment [1] addresses ATP-binding cassette sub-family C member 2 (Homo sapiens, UniProt Q92887). As to the kind of experiment: Inhibition of human MRP2 overexpressed in Sf9 cell membrane vesicles assessed as uptake of [3H]-estradiol-17beta-D-glucuronide in presence of ATP and GSH measured after 20 mins by membrane vesicle transport assay.
For experiment [2], the target named is T1, ATP-binding cassette sub-family C member 4 (Homo sapiens, UniProt O15439).
T1 sequence (O15439 whole entry): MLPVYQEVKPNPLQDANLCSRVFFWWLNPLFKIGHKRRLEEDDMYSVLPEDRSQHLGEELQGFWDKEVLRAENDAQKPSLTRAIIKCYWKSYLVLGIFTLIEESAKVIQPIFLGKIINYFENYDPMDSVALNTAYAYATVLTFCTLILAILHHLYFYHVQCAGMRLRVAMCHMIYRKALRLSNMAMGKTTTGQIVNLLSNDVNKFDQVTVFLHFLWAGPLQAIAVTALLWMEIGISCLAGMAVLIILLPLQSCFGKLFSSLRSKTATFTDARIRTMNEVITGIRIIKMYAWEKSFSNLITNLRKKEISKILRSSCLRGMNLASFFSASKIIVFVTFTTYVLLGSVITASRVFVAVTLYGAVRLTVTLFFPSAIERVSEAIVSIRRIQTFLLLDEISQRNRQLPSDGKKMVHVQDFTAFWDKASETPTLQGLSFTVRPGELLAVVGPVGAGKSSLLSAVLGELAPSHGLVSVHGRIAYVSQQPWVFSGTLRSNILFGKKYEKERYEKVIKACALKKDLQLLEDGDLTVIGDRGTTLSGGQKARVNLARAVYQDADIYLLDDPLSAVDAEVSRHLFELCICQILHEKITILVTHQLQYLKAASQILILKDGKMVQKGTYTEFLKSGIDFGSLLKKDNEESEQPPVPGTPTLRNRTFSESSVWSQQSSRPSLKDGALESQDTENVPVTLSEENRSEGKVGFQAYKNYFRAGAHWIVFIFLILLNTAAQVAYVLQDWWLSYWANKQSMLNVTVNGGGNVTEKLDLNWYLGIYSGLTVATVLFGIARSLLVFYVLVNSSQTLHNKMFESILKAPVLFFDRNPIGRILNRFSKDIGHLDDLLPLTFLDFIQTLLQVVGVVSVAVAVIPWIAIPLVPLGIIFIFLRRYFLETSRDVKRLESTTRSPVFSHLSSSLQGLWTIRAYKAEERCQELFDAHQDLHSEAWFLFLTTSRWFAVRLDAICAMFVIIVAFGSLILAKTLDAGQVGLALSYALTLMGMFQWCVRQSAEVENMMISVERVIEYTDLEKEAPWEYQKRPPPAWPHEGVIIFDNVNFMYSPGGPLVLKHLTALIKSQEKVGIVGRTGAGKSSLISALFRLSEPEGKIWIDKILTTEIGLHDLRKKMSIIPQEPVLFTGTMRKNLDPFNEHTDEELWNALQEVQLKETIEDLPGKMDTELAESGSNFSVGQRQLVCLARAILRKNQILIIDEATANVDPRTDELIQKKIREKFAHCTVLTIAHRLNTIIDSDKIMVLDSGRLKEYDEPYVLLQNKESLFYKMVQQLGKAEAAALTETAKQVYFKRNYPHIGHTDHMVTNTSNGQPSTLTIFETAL
The experiment is described as follows: Inhibition of human MRP4 overexpressed in Sf9 cell membrane vesicles assessed as uptake of [3H]-estradiol-17beta-D-glucuronide in presence of ATP and GSH measured after 20 mins by membrane vesicle transport assay. The format is ADME, cell-based.

For experiment [3], the target named is ATP-binding cassette sub-family C member 3 (Homo sapiens, UniProt O15438). The experiment is described as follows: Inhibition of human MRP3 overexpressed in Sf9 insect cell membrane vesicles assessed as uptake of [3H]-estradiol-17beta-D-glucuronide in presence of ATP and GSH measured after 10 mins by membrane vesicle transport assay. The format is ADME, cell-based.
ATP-binding cassette sub-family C member 3, sequence (O15438 whole entry): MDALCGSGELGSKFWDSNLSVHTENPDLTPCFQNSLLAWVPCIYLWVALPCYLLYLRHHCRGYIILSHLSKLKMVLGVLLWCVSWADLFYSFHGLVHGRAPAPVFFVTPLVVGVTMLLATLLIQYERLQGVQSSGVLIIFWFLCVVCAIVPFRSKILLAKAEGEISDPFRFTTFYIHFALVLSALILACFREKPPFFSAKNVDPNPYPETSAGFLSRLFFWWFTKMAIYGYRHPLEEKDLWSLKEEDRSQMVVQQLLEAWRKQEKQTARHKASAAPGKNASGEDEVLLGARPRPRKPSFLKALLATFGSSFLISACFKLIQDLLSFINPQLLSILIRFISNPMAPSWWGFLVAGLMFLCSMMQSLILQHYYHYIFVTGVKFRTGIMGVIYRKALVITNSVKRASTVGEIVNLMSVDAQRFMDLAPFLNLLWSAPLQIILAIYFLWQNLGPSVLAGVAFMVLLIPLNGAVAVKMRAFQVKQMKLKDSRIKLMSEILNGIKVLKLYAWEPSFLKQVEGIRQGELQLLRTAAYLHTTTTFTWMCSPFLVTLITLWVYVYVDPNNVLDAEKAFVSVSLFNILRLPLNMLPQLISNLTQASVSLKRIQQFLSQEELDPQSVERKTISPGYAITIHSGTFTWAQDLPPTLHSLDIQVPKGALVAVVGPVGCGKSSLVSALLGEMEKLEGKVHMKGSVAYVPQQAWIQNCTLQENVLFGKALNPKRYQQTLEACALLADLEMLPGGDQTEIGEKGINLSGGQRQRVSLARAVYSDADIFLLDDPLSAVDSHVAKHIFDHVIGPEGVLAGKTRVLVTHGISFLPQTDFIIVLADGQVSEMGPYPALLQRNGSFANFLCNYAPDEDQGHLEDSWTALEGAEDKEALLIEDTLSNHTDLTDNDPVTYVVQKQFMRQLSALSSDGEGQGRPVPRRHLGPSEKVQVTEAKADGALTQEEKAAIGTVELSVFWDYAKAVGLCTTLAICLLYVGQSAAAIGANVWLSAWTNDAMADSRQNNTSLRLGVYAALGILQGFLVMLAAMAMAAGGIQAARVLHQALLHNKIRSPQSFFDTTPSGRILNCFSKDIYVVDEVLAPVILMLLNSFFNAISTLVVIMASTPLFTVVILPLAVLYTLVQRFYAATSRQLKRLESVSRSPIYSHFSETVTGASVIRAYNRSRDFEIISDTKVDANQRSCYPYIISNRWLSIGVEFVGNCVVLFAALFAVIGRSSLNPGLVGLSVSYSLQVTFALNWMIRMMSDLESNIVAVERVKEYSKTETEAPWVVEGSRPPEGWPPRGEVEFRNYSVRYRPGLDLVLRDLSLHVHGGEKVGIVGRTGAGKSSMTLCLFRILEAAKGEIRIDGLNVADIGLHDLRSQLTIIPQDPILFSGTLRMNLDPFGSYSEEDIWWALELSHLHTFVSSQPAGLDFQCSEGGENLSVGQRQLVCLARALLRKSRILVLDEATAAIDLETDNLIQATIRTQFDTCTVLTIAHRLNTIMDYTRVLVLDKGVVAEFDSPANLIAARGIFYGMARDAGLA

Each structure is given as a SMILES string. Structures can show the parent of a compound that is named as a salt. A value given as a limit tells only on which side of the number the result lay.

ATP-binding cassette sub-family C member 2, sequence (Q92887 whole entry): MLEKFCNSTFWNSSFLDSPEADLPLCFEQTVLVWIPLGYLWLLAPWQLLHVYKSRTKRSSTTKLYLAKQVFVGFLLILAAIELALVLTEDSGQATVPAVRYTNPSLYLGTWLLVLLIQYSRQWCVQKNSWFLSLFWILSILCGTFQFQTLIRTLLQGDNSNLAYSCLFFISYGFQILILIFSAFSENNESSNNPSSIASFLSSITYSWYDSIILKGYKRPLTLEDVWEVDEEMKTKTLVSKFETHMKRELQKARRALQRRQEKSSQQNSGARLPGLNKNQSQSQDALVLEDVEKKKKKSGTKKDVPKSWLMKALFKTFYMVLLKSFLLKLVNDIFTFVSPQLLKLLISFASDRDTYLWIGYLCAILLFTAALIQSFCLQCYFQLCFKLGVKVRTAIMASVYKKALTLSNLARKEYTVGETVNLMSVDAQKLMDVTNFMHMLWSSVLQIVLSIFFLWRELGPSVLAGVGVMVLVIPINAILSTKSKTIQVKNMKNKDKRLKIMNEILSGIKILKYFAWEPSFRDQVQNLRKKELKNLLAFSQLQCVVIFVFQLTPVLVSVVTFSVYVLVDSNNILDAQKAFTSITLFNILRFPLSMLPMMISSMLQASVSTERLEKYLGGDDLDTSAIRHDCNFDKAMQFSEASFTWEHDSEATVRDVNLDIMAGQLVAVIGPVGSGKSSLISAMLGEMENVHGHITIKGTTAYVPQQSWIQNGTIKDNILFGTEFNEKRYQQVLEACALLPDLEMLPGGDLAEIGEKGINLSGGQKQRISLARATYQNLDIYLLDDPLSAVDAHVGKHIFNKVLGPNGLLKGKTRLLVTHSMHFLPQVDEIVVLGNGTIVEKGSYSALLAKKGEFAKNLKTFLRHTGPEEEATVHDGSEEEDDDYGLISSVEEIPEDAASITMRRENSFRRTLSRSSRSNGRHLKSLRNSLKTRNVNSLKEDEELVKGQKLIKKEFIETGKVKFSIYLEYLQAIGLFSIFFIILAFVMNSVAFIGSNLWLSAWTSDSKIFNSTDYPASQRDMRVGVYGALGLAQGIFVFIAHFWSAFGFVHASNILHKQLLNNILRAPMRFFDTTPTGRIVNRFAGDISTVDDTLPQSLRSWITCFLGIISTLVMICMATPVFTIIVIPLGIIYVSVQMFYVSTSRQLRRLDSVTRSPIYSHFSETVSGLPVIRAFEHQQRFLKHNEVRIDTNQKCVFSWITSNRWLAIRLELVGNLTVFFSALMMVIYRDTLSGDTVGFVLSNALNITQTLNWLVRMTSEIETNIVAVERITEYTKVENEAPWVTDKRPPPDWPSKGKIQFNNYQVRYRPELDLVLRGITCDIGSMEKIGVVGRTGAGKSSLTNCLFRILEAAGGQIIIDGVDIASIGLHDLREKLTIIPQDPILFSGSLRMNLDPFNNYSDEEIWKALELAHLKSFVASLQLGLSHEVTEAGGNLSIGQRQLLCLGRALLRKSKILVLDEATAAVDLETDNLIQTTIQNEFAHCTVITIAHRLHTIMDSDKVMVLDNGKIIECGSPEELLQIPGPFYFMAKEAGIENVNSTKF
Bile salt export pump, sequence (O95342 whole entry): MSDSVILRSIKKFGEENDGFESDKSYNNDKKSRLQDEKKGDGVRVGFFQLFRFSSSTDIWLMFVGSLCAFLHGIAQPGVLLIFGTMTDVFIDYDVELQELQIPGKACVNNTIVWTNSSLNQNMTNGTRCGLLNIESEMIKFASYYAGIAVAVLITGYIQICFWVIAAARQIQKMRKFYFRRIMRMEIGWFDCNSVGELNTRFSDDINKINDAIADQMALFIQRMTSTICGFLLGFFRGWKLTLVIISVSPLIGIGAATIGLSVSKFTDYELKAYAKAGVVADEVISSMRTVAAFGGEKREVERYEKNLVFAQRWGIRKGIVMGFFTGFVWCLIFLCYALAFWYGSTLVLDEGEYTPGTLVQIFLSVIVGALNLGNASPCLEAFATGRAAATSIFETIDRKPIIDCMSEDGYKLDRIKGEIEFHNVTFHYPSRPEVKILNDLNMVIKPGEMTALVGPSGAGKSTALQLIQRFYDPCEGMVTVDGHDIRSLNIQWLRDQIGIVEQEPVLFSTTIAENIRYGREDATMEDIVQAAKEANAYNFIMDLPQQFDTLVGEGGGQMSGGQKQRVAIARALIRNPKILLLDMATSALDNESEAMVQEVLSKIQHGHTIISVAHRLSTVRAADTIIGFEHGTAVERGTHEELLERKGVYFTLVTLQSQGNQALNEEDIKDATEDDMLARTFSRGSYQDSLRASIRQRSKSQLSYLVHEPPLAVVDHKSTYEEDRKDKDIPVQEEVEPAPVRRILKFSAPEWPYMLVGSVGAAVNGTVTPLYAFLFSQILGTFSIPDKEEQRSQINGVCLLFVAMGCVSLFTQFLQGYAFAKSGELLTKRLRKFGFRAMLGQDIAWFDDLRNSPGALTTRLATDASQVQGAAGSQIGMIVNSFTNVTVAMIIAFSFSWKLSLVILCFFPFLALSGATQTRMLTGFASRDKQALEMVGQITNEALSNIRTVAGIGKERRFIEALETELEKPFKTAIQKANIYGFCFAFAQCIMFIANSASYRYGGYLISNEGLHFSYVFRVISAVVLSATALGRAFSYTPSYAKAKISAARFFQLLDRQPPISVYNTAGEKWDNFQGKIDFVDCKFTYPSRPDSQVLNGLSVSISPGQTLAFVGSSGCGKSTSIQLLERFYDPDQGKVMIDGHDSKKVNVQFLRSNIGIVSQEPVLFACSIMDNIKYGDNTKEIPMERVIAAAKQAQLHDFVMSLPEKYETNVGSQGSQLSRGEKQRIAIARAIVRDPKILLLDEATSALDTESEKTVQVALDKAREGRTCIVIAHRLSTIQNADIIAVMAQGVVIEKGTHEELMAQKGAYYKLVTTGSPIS

For orientation: IC50 means the concentration needed to halve the response being measured. For `CC1Cc2ccccc2N1NC(=O)c1ccc(Cl)c(S(N)(=O)=O)c1` (stereo unspecified) [INDAPAMIDE], the half-inhibitory concentration (IC50) (at Bile salt export pump; in experiment [1]; in experiment [2]; in experiment [3]) was over 133 µM throughout.

For `O=C(NC1CCN(CCc2c[nH]c3ccccc23)CC1)c1ccccc1` [INDORAMIN], the IC50 (on Bile salt export pump; in experiment [1]; in experiment [2]; in experiment [3]) was over 133 µM in each case.

In the case of `CC(=O)N(CC(O)CO)c1c(I)c(C(=O)NCC(O)CO)c(I)c(C(=O)NCC(O)CO)c1I` (stereo unspecified) [IOHEXOL], the IC50 (on Bile salt export pump; in experiment [1]; in experiment [2]; in experiment [3]) was over 133 µM throughout.

`CC(C)NNC(=O)c1ccncc1` [IPRONIAZID]: the IC50 (at Bile salt export pump; in experiment [1]; in experiment [2]; in experiment [3]) was over 133 µM throughout.

Consider `NNC(=O)c1ccncc1` [ISONIAZID], for which the IC50 (at Bile salt export pump; in experiment [1]; in experiment [2]; in experiment [3]) was over 133 µM each time.

Consider `Cc1cc(NC(=O)C2=C(O)c3ccccc3S(=O)(=O)N2C)no1` [ISOXICAM], for which the IC50 (on Bile salt export pump; in experiment [1]; in experiment [2]; in experiment [3]) was over 133 µM in each case.

In the case of `NC[C@H]1O[C@H](O[C@H]2[C@H](O)[C@@H](O[C@H]3O[C@H](CO)[C@@H](O)[C@H](N)[C@H]3O)[C@H](N)C[C@@H]2N)[C@H](O)[C@@H](O)[C@@H]1O` [KANAMYCIN], the IC50 (at Bile salt export pump; in experiment [1]; in experiment [2]; in experiment [3]) was over 133 µM in each case.

Take `CNC1(c2ccccc2Cl)CCCCC1=O` (stereo unspecified) [KETAMINE]: the IC50 (on Bile salt export pump; in experiment [1]; in experiment [2]; in experiment [3]) was over 133 µM in each case.

Consider `O=C(c1ccc(F)cc1)C1CCN(CCn2c(=O)[nH]c3ccccc3c2=O)CC1` [KETANSERIN], for which the IC50 (on Bile salt export pump; in experiment [1]; in experiment [2]; in experiment [3]) was over 133 µM each time.

Consider `O=C(c1ccccc1)c1ccc2n1CCC2C(=O)O` (stereo unspecified) [KETOROLAC TROMETHAMINE], for which the IC50 on Bile salt export pump was over 133 µM; in experiment [1], over 133 µM; in experiment [2], 2.7 µM; in experiment [3] it was over 133 µM.

For the molecule `CN1CCC(=C2c3ccccc3CC(=O)c3sccc32)CC1` [KETOTIFEN FUMARATE], the IC50 (at Bile salt export pump; in experiment [1]; in experiment [2]; in experiment [3]) was over 133 µM each time.

Turning to `COC[C@@H](NC(C)=O)C(=O)NCc1ccccc1` [LACOSAMIDE], the IC50 (on Bile salt export pump; in experiment [1]; in experiment [2]; in experiment [3]) was over 133 µM throughout.

In the case of `Cc1c(OCC(F)(F)F)ccnc1C[S+]([O-])c1nc2ccccc2[nH]1` (stereo unspecified) [LANSOPRAZOLE], the IC50 (at Bile salt export pump; in experiment [1]; in experiment [2]; in experiment [3]) was over 133 µM throughout.

In the case of `Cc1oncc1C(=O)Nc1ccc(C(F)(F)F)cc1` [LEFLUNOMIDE], the 50% inhibitory concentration (IC50) (at Bile salt export pump; in experiment [1]; in experiment [2]; in experiment [3]) was over 133 µM each time.

`Nc1cccc2c1CN(C1CCC(=O)NC1=O)C2=O` (stereo unspecified) [LENALIDOMIDE]: the IC50 (at Bile salt export pump; in experiment [1]; in experiment [2]; in experiment [3]) was over 133 µM in each case.

As for `Nc1nc2c(c(=O)[nH]1)N(C=O)C(CNc1ccc(C(=O)N[C@@H](CCC(=O)O)C(=O)O)cc1)CN2` (stereo partly specified) [LEUCOVORIN CALCIUM], the IC50 (at Bile salt export pump; in experiment [1]; in experiment [2]; in experiment [3]) was over 133 µM in each case.

`CCNC(=O)[C@@H]1CCCN1C(=O)[C@H](CCCNC(=N)N)NC(=O)[C@H](CC(C)C)NC(=O)[C@@H](CC(C)C)NC(=O)[C@H](Cc1ccc(O)cc1)NC(=O)[C@H](CO)NC(=O)[C@H](Cc1c[nH]c2ccccc12)NC(=O)[C@H](Cc1c[nH]cn1)NC(=O)[C@@H]1CCC(=O)N1` [LEUPROLIDE ACETATE]: the IC50 was over 133 µM at Bile salt export pump, 80.2 µM in experiment [1], over 133 µM in experiment [2] and over 133 µM in experiment [3].

On to `N[C@@H](Cc1ccc(O)c(O)c1)C(=O)O` [LEVODOPA], for which the IC50 (at Bile salt export pump; in experiment [1]; in experiment [2]; in experiment [3]) was over 133 µM throughout.

Consider `C[C@H]1COc2c(N3CCN(C)CC3)c(F)cc3c(=O)c(C(=O)O)cn1c23` [LEVOFLOXACIN], for which the IC50 (on Bile salt export pump; in experiment [1]; in experiment [2]; in experiment [3]) was over 133 µM each time.

Consider `C#C[C@]1(O)CC[C@H]2[C@@H]3CCC4=CC(=O)CC[C@@H]4[C@H]3CC[C@@]21CC` [LEVONORGESTREL], for which the IC50 (at Bile salt export pump; in experiment [1]; in experiment [2]; in experiment [3]) was over 133 µM throughout.

In the case of `CCN1CCC[C@H]1CNC(=O)c1cc(S(N)(=O)=O)ccc1OC` [LEVOSULPIRIDE], the IC50 (at Bile salt export pump; in experiment [1]; in experiment [2]; in experiment [3]) was over 133 µM in each case.

As to `CC(=O)NC[C@H]1CN(c2ccc(N3CCOCC3)c(F)c2)C(=O)O1` [LINEZOLID], the IC50 (on Bile salt export pump; in experiment [1]; in experiment [2]; in experiment [3]) was over 133 µM in each case.

Take `CN(CCCN1c2ccccc2CCc2ccccc21)CC(=O)c1ccc(Cl)cc1` [LOFEPRAMINE]: the 50% inhibitory concentration (IC50) (on Bile salt export pump; in experiment [1]; in experiment [2]; in experiment [3]) was over 133 µM throughout.

Turning to `O=NN(CCCl)C(=O)NC1CCCCC1` [LOMUSTINE], the IC50 (on Bile salt export pump; in experiment [1]; in experiment [2]; in experiment [3]) was over 133 µM each time.

With `CN1C(C(=O)Nc2ccccn2)=C(O)c2sc(Cl)cc2S1(=O)=O` [LORNOXICAM], the IC50 is 7.56 µM on Bile salt export pump, over 133 µM in experiment [1], over 133 µM in experiment [2] and over 133 µM in experiment [3].

Take `CCOC(=O)O[C@]1(C(=O)OCCl)CC[C@H]2[C@@H]3CCC4=CC(=O)C=C[C@]4(C)[C@H]3[C@@H](O)C[C@@]21C` [LOTEPREDNOL ETABONATE]: the IC50 on Bile salt export pump was 40.4 µM; in experiment [1] it was over 133 µM; in experiment [2], over 133 µM; in experiment [3], 15.5 µM.

As for `NCc1ccc(S(N)(=O)=O)cc1` [MAFENIDE ACETATE], the IC50 (at Bile salt export pump; in experiment [1]; in experiment [2]; in experiment [3]) was over 133 µM throughout.

In the case of `Cc1nnc(C(C)C)n1[C@@H]1C[C@H]2CC[C@@H](C1)N2CC[C@H](NC(=O)C1CCC(F)(F)CC1)c1ccccc1` [MARAVIROC], the IC50 was 110 µM on Bile salt export pump, over 133 µM in experiment [1], over 133 µM in experiment [2] and over 133 µM in experiment [3].

As for `Cc1cccc(Nc2ccccc2C(=O)O)c1C` [MEFENAMIC ACID], the IC50 (on Bile salt export pump; in experiment [1]; in experiment [2]; in experiment [3]) was over 133 µM in each case.
